Source: patent US20260001928A1 (CORTERIA PHARMACEUTICALS, priority 2022, published 2026)
*1 amine or outer side, *2 acyl side, *3 side chain or, on linkers, in order; H or OH if unused. Where a SMILES comes first, the peptide text is derived from it. Side-chain parts run from the residue outwards. [ ]: non-standard residue; d: D form. The star is where a group is joined. C20 diacid = O=C(O)CCCCCCCCCCCCCCCCCCC(=O)*; C16 diacid = O=C(O)CCCCCCCCCCCCCCC(=O)*; γGlu = O=C(O)[C@H](CCC(=O)[*:2])N[*:1]; AEEA = NCCOCCOCC(=O)O; Aib = CC(C)(N)C(=O)O

Tests used:
human CRF2a receptor = target: T1, human CRF2a receptor (Homo sapiens, UniProt Q13324); experiment: Activity at human CRF2a receptor, cAMP functional assay in TeloHEAC cells; assay type: cell-based; settings: TeloHEAC cells stably expressing human CRF2a receptor, relative to urocortin 2 (100 nM = 100%)
T1 construct: expressed in transfected cells; host or cells: TeloHEAC cells
T1 sequence (Q13324 1-411): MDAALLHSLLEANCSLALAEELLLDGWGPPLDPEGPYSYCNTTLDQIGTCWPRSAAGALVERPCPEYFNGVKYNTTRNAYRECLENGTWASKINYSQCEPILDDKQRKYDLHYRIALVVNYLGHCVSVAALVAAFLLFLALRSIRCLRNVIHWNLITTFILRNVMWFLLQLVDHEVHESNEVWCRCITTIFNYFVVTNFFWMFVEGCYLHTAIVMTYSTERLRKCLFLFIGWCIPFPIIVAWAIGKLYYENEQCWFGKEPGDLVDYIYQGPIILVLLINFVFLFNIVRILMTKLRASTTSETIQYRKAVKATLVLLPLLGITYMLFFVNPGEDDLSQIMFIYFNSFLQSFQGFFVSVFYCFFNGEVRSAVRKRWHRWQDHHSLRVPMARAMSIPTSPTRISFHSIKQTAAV
Summary of the method: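 TeloHEAC cells stably expressing human CRF2a (10000 cells/well) were treated with 16-point 1:2 compound dilutions in HBSS/20 mM HEPES with IBMX for 30 min at 37° C. cAMP was read by HTRF (665/620 nm ratio). EC50 was the concentration giving 50% activation, with 100 nM urocortin 2 set as 100%.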

CFR1R receptor = target: T2, CFR1R receptor (Homo sapiens, UniProt P34998); experiment: Activity at anti-target CFR1R receptor, cAMP assay in CRF1R-overexpression CHO-K1 cells; assay type: cell-based; settings: 100% = Sauvagine at 100 nM; for EC50: cAMP
T2 construct: host or cells: CHO-K1 (clone 2)
T2 sequence (P34998 24-415): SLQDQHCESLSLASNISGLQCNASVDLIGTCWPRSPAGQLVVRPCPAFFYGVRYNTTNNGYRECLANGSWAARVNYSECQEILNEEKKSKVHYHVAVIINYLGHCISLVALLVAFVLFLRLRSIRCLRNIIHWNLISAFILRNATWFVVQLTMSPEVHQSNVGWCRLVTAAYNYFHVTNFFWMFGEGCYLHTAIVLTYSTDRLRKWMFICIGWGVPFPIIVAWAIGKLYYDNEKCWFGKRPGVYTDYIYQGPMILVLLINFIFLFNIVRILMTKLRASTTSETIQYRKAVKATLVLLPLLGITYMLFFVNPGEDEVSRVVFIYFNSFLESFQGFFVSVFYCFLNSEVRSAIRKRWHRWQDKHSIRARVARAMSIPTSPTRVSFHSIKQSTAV
Summary of the method: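 Clone 2 cells were cultured in F12 (Hams)/10% FBS/400 μg/ml G418 at 37° C./5% CO2, frozen in medium with 10% DMSO, and thawed vials used. The protocol followed the TeloHAEC procedure, with 4000 cells/well final and Sauvagine at 100 nM defining 100% activation.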

[1] = In vitro subcutaneous tissue supernatant (SCts) stability and metabolite identification, rat; assay type: in vitro ADME; design: remaining at 2 h: dose or concentration left out as unconfirmed; settings: male, Sprague Dawley; rat subcutaneous tissue supernatant (SCts), 37° C, 2 h
Experimental: In vitro metabolic stability in subcutaneous tissue supernatant (SCts) was studied in male Sprague Dawley rats. Test compounds were incubated […] for 2 hours at 37° C.
Software aided in vitro metabolite identification on SCts stability samples was performed using either Metabolite Pilot (Sciex) or Biopharma Finder (Thermo). In addition, metabolite identification using Metabolite Pilot was performed on plasma samples of Comp Y following SC administration to rat at 1 mg/kg.

[2] = Chemical stability in buffer (pH 7.4 / pH 4.5), % purity loss; assay type: physicochemical; settings: 100 mM phosphate buffer pH 7.4; 40° C. vs 5° C.; 14 or 28 days
Summary of the method: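 Compounds dissolved at 10 mg/mL target in 100 mM phosphate (pH 7.4) or 100 mM acetate (pH 4.5) buffer for 1 h at room temperature, then centrifuged. Diluted supernatant stored at 5 °C or 40 °C for 14 or 28 days; % purity loss by LC-UV.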

Sprague Dawley rats = experiment: Effect on systolic blood pressure, telemetry in Sprague Dawley rats; assay type: in vivo, rat; settings: 0.1 mg/kg SC; for Systolic blood pressure (Mean) % change from baseline, 8 h / Systolic blood pressure (Mean) % change from baseline, 12 h / Systolic blood pressure (Mean) % change from baseline, 24 h: n=2; for Duration of action: last time point with an effect on BP still observed
Summary of the method: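 Sprague Dawley rats with abdominal-aorta telemetry catheters, recovered ≥10 days, received 0.1 mg/kg SC of compound or vehicle. Systolic pressure recorded 1 h pre-dose as baseline, then continuously up to 48 hours, expressed as % change from baseline; duration of action is last time point with a BP effect (n=2).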

| Structure (SMILES) | EC50 (human CRF2a receptor) | Emax (% I) (CFR1R receptor) | EC50 (CFR1R receptor) | remaining at 2 h [1] | Buffer stability pH 7.4 % purity loss [2] | Systolic blood pressure (Mean) % change from baseline, 8 h (Sprague Dawley rats) | Systolic blood pressure (Mean) % change from baseline, 12 h (Sprague Dawley rats) | Systolic blood pressure (Mean) % change from baseline, 24 h (Sprague Dawley rats) | Duration of action (Sprague Dawley rats) |
| --- | --- | --- | --- | --- | --- | --- | --- | --- | --- |
| CC[C@H](C)[C@H](NC(C)=O)C(=O)N[C@H](C(=O)N[C@@H](CC(C)C)C(=O)N[C@@H](CO)C(=O)N[C@@H](CC(C)C)C(=O)N[C@@H](CC(=O)O)C(=O)N[C@@H](C(=O)N1CCC[C@H]1C(=O)N[C@H](C(=O)N[C@@H](CCCCN)C(=O)N[C@@H](CC(C)C)C(=O)N[C@@H](CCCCNC(=O)CC[C@H](NC(=O)CCCCCCCCCCCCCCC(=O)O)C(=O)O)C(=O)N[C@@H](CCCCN)C(=O)N[C@H](C(=O)N[C@@H](CC(C)C)C(=O)N[C@@H](CC(C)C)C(=O)N[C@@H](CCC(=O)O)C(=O)N[C@@H](CCC(N)=O)C(=O)N[C@@H](CCC(=O)O)C(=O)N[C@@H](CCCCN)C(=O)N[C@@H](CCC(N)=O)C(=O)N[C@@H](CCCCN)C(=O)N[C@@H](CCCCN)C(=O)N[C@@H](CCC(N)=O)C(=O)N[C@@H](CCCNC(=N)N)C(=O)N[C@@H](CCC(=O)O)C(=O)N[C@@H](CCC(N)=O)C(=O)N[C@@H](C)C(=O)N[C@@H](CCC(=O)O)C(=O)N[C@H](C(=O)N[C@@H](CC(N)=O)C(=O)NC(C)(C)C(=O)N[C@@H](CCC(N)=O)C(=O)N[C@H](C(=O)N[C@@H](CC(C)C)C(=O)N[C@@H](C)C(=O)N[C@@H](CCC(N)=O)C(=O)N[C@H](C(N)=O)C(C)C)[C@@H](C)CC)[C@@H](C)O)[C@@H](C)CC)[C@@H](C)CC)C(C)C)C(C)C [compound 40] (Ac-IVLSLD[dV]PIKLK([γGlu-C16 diacid])KILLEQEKQKKQREQAETN[Aib]QILAQV-NH2) | 250 pM | 0 % I | > 250000 pM | 79% | 0/nd ^ % | −30% | −18% | 7% | 23 h |
| CC[C@H](C)[C@H](NC(C)=O)C(=O)N[C@H](C(=O)N[C@@H](CC(C)C)C(=O)N[C@@H](CO)C(=O)N[C@@H](CC(C)C)C(=O)N[C@@H](CC(=O)O)C(=O)N[C@@H](C(=O)N1CCC[C@H]1C(=O)N[C@H](C(=O)N[C@@H](CCCCN)C(=O)N[C@@H](CC(C)C)C(=O)N[C@@H](CCCCNC(=O)CC[C@H](NC(=O)CCCCCCCCCCCCCCC(=O)O)C(=O)O)C(=O)N[C@@H](CCCCN)C(=O)N[C@H](C(=O)N[C@@H](CC(C)C)C(=O)N[C@@H](CC(C)C)C(=O)N[C@@H](CCC(=O)O)C(=O)N[C@@H](CCC(N)=O)C(=O)N[C@@H](CCC(=O)O)C(=O)N[C@@H](C)C(=O)N[C@@H](CCC(N)=O)C(=O)N[C@@H](CCCCN)C(=O)N[C@@H](CCCCN)C(=O)N[C@@H](CCC(N)=O)C(=O)N[C@@H](CCCNC(=N)N)C(=O)N[C@@H](CCC(=O)O)C(=O)N[C@@H](CCC(N)=O)C(=O)N[C@@H](C)C(=O)N[C@@H](CCC(=O)O)C(=O)N[C@H](C(=O)N[C@@H](CC(N)=O)C(=O)NC(C)(C)C(=O)N[C@@H](CCC(N)=O)C(=O)N[C@H](C(=O)N[C@@H](CC(C)C)C(=O)N[C@@H](C)C(=O)N[C@@H](CCC(N)=O)C(=O)N[C@H](C(N)=O)C(C)C)[C@@H](C)CC)[C@@H](C)O)[C@@H](C)CC)[C@@H](C)CC)C(C)C)C(C)C [compound 165] (Ac-IVLSLD[dV]PIKLK([γGlu-C16 diacid])KILLEQEAQKKQREQAETN[Aib]QILAQV-NH2) | 640 pM | 14 % I | > 250000 pM | 72% | 0.0/Not Tested % | −30% | −20% | 2% | 23 h |
| CC[C@H](C)[C@H](NC(C)=O)C(=O)N[C@H](C(=O)N[C@@H](CC(C)C)C(=O)N[C@@H](CO)C(=O)N[C@@H](CC(C)C)C(=O)N[C@@H](CC(=O)O)C(=O)N[C@@H](C(=O)N1CCC[C@H]1C(=O)N[C@H](C(=O)N[C@@H](CCCCN)C(=O)N[C@@H](CC(C)C)C(=O)N[C@@H](CCCCNC(=O)COCCOCCNC(=O)CC[C@H](NC(=O)CCCCCCCCCCCCCCCCCCC(=O)O)C(=O)O)C(=O)N[C@@H](CCCCN)C(=O)N[C@H](C(=O)N[C@@H](CC(C)C)C(=O)N[C@@H](CC(C)C)C(=O)N[C@@H](CCC(=O)O)C(=O)N[C@@H](CCC(N)=O)C(=O)N[C@@H](CCC(=O)O)C(=O)N[C@@H](CCCCN)C(=O)N[C@@H](CCC(N)=O)C(=O)N[C@@H](CCCCN)C(=O)N[C@@H](CCC(=O)O)C(=O)N[C@@H](CCC(N)=O)C(=O)N[C@@H](CCCNC(=N)N)C(=O)N[C@@H](CCC(=O)O)C(=O)N[C@@H](CCC(N)=O)C(=O)N[C@@H](C)C(=O)N[C@@H](CCC(=O)O)C(=O)N[C@H](C(=O)N[C@@H](CC(N)=O)C(=O)NC(C)(C)C(=O)N[C@@H](CCC(N)=O)C(=O)N[C@H](C(=O)N[C@@H](CC(C)C)C(=O)N[C@@H](C)C(=O)N[C@@H](CCC(N)=O)C(=O)N[C@H](C(N)=O)C(C)C)[C@@H](C)CC)[C@@H](C)O)[C@@H](C)CC)[C@@H](C)CC)C(C)C)C(C)C [compound 231] (Ac-IVLSLD[dV]PIKLK([AEEA-γGlu-C20 diacid])KILLEQEKQKEQREQAETN[Aib]QILAQV-NH2) | 280 pM | 10 % I | > 250000 pM | 65% | 0.0/Not Tested % | −3% | −3% | −12% | >24 h |
